Results from patent EP1083873B1 (MGI GP, Inc., priority 1998, dated 1999).
Read-outs that look alike come from different tables or passages of the source.

Tests used:
FKBP12 = FKBP12 (Homo sapiens, UniProt P62942); test: Ki test procedure: inhibition of peptidyl-prolyl isomerase (rotamase) activity, chymotrypsin-coupled assay; type: biochemical
From the text: The inhibition of the prolyl peptidyl cis-trans isomerase activity of FKBP may be measured as an indicator of this affinity.
Inhibition of the peptidyl-prolyl isomerase (rotamase) activity of the compounds used in the inventive methods and pharmaceutical compositions can be evaluated by known methods described in the literature (Harding et al., Nature, 1989, 341:758-760; Holt et al. J. Am. Chem. Soc., 115:9923-9938).
The cis-trans isomerization of an alanine-proline bond in a model substrate, N-succinyl-Ala-Ala-Pro-Phe-p-nitroanilide, is monitored spectrophotometrically in a chymotrypsin-coupled assay, which releases paranitroanilide from the trans form of the substrate. The inhibition of this reaction caused by the addition of different concentrations of inhibitor is determined, and the data is analyzed as a change in first-order rate constant as a function of inhibitor concentration to yield the apparent Ki values.
In a plastic cuvette are added […] of ice cold assay buffer (25 mM HEPES, pH 7.8, 100 mM NaCl), 10 mL of FKBP (2.5 mM in 10 mM Tris-Cl pH 7.5, 100 mM NaCl, 1 mM dithiothreitol), […] of chymotrypsin (50 mg/ml in 1 mM HCl) and […] of test compound at various concentrations in dimethyl sulfoxide. The reaction is initiated by the addition of 5 mL of substrate (succinyl-Ala-Phe-Pro-Phe-para-nitroanilide, 5 mg/mL in 2.35 mM LiCl in trifluoroethanol).
The absorbance at 390 nm versus time is monitored for 90 seconds using a spectrophotometer and the rate constants are determined from the absorbance versus time data files.

C57 black 6 mice [1] = test: In vivo hair generation test, Experiment A (shaved C57 black 6 mice, topical); details: 30 µM topical in 20% propylene glycol, 3 applications over 5 days, after six weeks
From the text: Care was taken not to nick or cause abrasion to the underlaying dermal layers. The animals were in anagen growth phase, as indicated by the pinkish color of the skin. […] Hair growth was quantitated by the percent of shaved area covered by new hair growth during this time period.

C57 black 6 mice [2] = test: In vivo hair generation test, Experiment B (shaved C57 Black 6 mice, topical, 14 days); details: one micromole per milliliter topical, three times per week, 14 days after initiation of treatment
Protocol: Care was taken not to nick or cause abrasion to the underlying dermal layers. The animals were in anagen growth phase when shaved. […] The animals were treated three times per week, and hair growth was evaluated 14 days after initiation of treatment.

FKBP12, sequence (P62942 whole entry, species assumed): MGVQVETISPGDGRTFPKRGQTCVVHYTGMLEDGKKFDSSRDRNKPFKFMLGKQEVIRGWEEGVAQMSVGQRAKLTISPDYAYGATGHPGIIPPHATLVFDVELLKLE

Compound | Ki (FKBP12) | further results
CCC(C)(C)C(=O)C(=O)N1CCC[C@H]1C(=O)SCc1csc2ccccc12 [Compound 11, (3-Thioindolyl) methyl (2S) -1-(3,3-dimethyl-1,2-dioxopentyl)-2-pyrrolidinecarbothioate] | – | Ki (FKBP12; apparent Ki, rotamase inhibition, read-out: Ki): 299 nM
O=C(C(=O)N1CCC[C@H]1C(=O)SCCc1ccccc1)C1CCCCC1 [Compound 12] | 442 nM | –
O=C(C(=O)N1CCCCC1C(=O)SCCc1ccccc1)c1ccccc1 (stereo not drawn) [Compound 14] | 313 nM | –
CC(C)(C)C(=O)C(=O)N1CCCCC1C(=O)SCCCc1ccccc1 (stereo not drawn) [Compound 29] | 59 nM | –
O=C(C(=O)N1CCC[C@H]1C(=O)SCCCCc1ccccc1)C1CCCCC1 [Compound 33] | 1700 nM | –
O=C(C(=O)N1CCC[C@H]1C(=O)SCCCc1cccnc1)C1CCCCC1 [Compound 35] | 62 nM | –
CC(C)(C)C(=O)C(=O)N1CCCCC1C(=O)SCCCCc1ccccc1 (stereo not drawn) [Compound 39] | 347 nM | –
COc1ccc(CCCSC(=O)C2CCCCN2C(=O)C(=O)c2ccccc2)cc1 (stereo not drawn) [Compound 43] | 259 nM | –
CCC(C)(C)C(=O)C(=O)N1CCCC1C(=O)SCCCC(c1ccc(F)cc1)c1ccc(F)cc1 (stereo not drawn) [Compound 46] | 757 nM | –
CCC(C)(C)C(=O)C(=O)N1CCC[C@H]1C(=O)SCCCc1cccc2ccccc12 [Compound 47] | 21 nM | –
CCC(C)(C)C(=O)C(=O)N1CCCCC1C(=O)SCCCc1ccc2ccccc2c1 [Compound 53, 3-(2-Naphthyl)propyl (2R, S) -1-(3,3-dimethyl-2-oxopentanoyl)-2-piperidinecarbothioate] | – | Ki (FKBP12; apparent Ki, rotamase inhibition): 261 nM
CCC(C)(C)C(=O)C(=O)N1CCC[C@H]1C(=O)SCCCc1cccc(Cl)c1 [Compound 54] | 37 nM | –
CCC(C)(C)C(=O)C(=O)N1CCC[C@H]1C(=O)SCCCc1ccccc1F [Compound 57] | 57 nM | –
CCC(C)(C)C(=O)C(=O)N1CCC[C@H]1C(=O)SCCCc1cccc(F)c1 [Compound 58] | 79 nM | –
CCC(C)(C)C(=O)C(=O)N1CCCCC1C(=O)SCCCCc1ccccc1 (stereo not drawn) [Compound 59] | 962 nM | –
CCC(C)(C)C(=O)C(=O)N1CCCCC1C(=O)SCCCc1ccccc1 (stereo not drawn) [Compound 60] | 90 nM | –
CCC(C)(C)C(=O)C(=O)N1CCC[C@H]1C(=O)SCCCc1ccccc1Cl [Compound 61] | 139 nM | –
CCC(C)(C)C(=O)C(=O)N1CCCCC1C(=O)SCCCc1cccc(F)c1 (stereo not drawn) [Compound 64] | 163 nM | –
CCC(C)(C)C(=O)C(=O)N1CCC[C@H]1C(=O)OCCCc1cccnc1 [GPI 1046, 3-(3-pyridyl)-1-propyl (2s)-1-(3,3-dimethyl-1,2-dioxopentyl)-2-pyrrolidinecarboxylate] | – | hair regrowth in the shaved area (C57 black 6 mice [1]): essentially complete hair regrowth
CCC(C)(C)C(=O)C(=O)N1CCC[C@H]1C(=O)SCCC(c1ccccc1)c1ccccc1 [GPI 1234] | – | hair growth (Figure 5, relative hair growth index) (C57 black 6 mice [2]): dramatic hair growth
CCC(C)(C)C(=O)C(=O)N1CCCC[C@H]1C(=O)SCCC(c1ccccc1)c1ccccc1 [GPI 1511] | – | hair growth (Figure 5, relative hair growth index) (C57 black 6 mice [2]): dramatic hair growth
